Measured values reported in paper PMC10287555, “Camonsertib in DNA damage response-deficient advanced solid tumors: phase 1 trial results” (Nature Medicine, 2023).

How the values were obtained:
[1] = Food effect on PK (module 1c); format: in vivo, human
Excerpt: TRESR (NCT04497116) is a modular, phase 1/2a, first-in-human, multicenter, open-label, non-randomized, dose-escalation, dose-expansion study of camonsertib, administered orally as a single agent or in combination with talazoparib or gemcitabine in patients with advanced solid tumors. The results reported here focus on module 1, which includes the dose escalation of camonsertib monotherapy, and is further divided into three submodules: module 1a (M1a), 5/2 dosing schedule; module 1b (M1b), 3/4 dosing schedule; and module 1c (M1c), food effect evaluation. For the 12 patients enrolled in M1c, camonsertib was administered with a high-fat, high-calorie meal on day −3 and in the fasted state on day 1, to evaluate the effect of food on the PK of camonsertib. After the food effect portion of the study, patients continued camonsertib monotherapy on either the 5/2 or 3/4 schedule and were analyzed for safety and efficacy along with the patients in M1a and M1b. The study was conducted in accordance with the Declaration of Helsinki and Council for International Organizations of Medical Sciences International Ethical Guidelines, applicable International Conference on Harmonization Good Clinical Practice Guidelines and applicable laws and regulations. All patients provided written informed consent to adhere to the clinical protocol and provide serial blood samples and tumor tissue. The protocol was approved by the institutional review board or ethics committee at each participating institution.
The plasma levels from cycle 1, day 1 of camonsertib were quantified using a validated liquid chromatography tandem–mass spectrometry (LC–MS/MS) method. […] All PK parameters were calculated using actual sampling times. Mean plasma concentration time profiles at given dose levels and regimens were plotted on semi-logarithmic plots using nominal times.

[2] = Dose-limiting toxicities (DLTs), TRESR phase 1 module 1; format: in vivo
Description: The starting dose of camonsertib was 5 mg administered on a 5-d-on, 2-d-off (5/2) schedule given once daily (QD) in 21-d cycles. Dose escalation proceeded until a total daily dose of 160 mg was achieved. Per protocol, based on emerging safety, PK and PD data, an alternative schedule of 3 d on, 4 d off (3/4) was then started at a daily dose of 120 mg and escalated to 200 mg, and 160 mg QD (3/4) of camonsertib was proposed as the preliminary RP2D based on long-term (>6 weeks) safety, tolerability, PK and PD data. The dose-limiting toxicity (DLT) rate at the proposed preliminary RP2D was 8% (2/25). All DLTs comprised hematologic toxicities (Table 2).
Patients were treated with single-agent camonsertib at doses ranging from 5–160 mg QD to 40–80 mg twice daily, administered orally on a 5/2 or 3/4 weekly schedule. An intermittent schedule of 2 weeks on/1 week off was also evaluated at dose levels of 160 mg and 200 mg QD (3/4). Each cycle comprised 21 d of treatment. Module 1 dose-escalation decisions based on patients in M1a and M1b cohorts were governed by the Bayesian optimal interval (BOIN) design starting with single-patient cohorts in M1a. […] Escalation of M1a and M1b occurred in parallel until the maximum tolerated dose (MTD) […] RP2D was determined for each schedule. Backfill cohorts were employed to (1) aid in the assessment of possible anti-tumor activity in a subset of patients with a specific gene abnormality or tumor type; (2) allow additional PK/PD evaluation; and (3) further assess drug-related toxicities. Patient safety review and dose decisions were carried out by a Safety Review Committee, comprised of the study investigators and sponsor representatives.
All safety and efficacy endpoints were summarized with descriptive statistics. Safety data were summarized using the safety population, which consisted of all patients who received at least one dose of RP-3500. The DLT rate was based on the DLT-evaluable population, which included those patients in dose-escalation cohorts (M1a and M1b only) receiving ≥80% of planned doses of camonsertib, who completed all required safety evaluations and were observed through the end of cycle 1 or patients who experienced a DLT. Due to the different number of dose levels expected and the exploratory nature of the phase 1 study, anti-tumor activity parameters were primarily based on patients who received ≥1 dose of RP-3500 and had ≥1 post-baseline tumor assessment by RECIST 1.1 and/or GCIG CA-125 or PCWG3 PSA criteria, with an initial dose level of >100 mg d^−1 (dose level predicted to achieve efficacious exposure), as defined in the statistical analysis plan. Additional subgroups based on tumor types or genotypes of interest were based on this efficacy analysis set. […] Patients were, therefore, enrolled in the study and endpoints assessed regardless of sex, gender and race. No formal statistical tests were performed in this study. However, nominal P values (two-sided) were provided for the hypothesis-generating purpose of selected exploratory endpoints, without adjusting for multiplicity. A log-rank test was used in between-group comparisons for the time-to-event endpoints (PFS and DOT), and Fisher’s exact test was used in between-group comparisons for the binary endpoints (CBR, MR, etc.).

[3] = high fat/high calorie meal vs fasted, 100–160 mg QD
[4] = 3/4 schedule, 60 mg BID (n = 3)
[5] = 3/4 schedule, 120 mg QD (n = 17)
[6] = 3/4 schedule, 160 mg QD (n = 25)
[7] = 3/4 schedule, 2/1w, 160 mg QD (n = 25)
[8] = 3/4 schedule, 2/1w, 200 mg QD (n = 5)
[9] = 5/2 schedule, 40 mg BID (n = 1)
[10] = 5/2 schedule, 100 mg QD (n = 4)
[11] = 5/2 schedule, 120 mg QD (n = 4)
[12] = 5/2 schedule, 160 mg QD (n = 3)
[13] = 5/2 schedule, 5–80 mg QD (n = 5)

For `C[C@@H]1COCCN1c1cc([C@]2(O)C[C@H]3CC[C@@H](C2)O3)c2cnn(-c3cc[nH]n3)c2n1` [camonsertib], the “Food effect on AUC” value [1, 3] was “no change in AUC”, the “Food effect on Cmax” value [1, 3] was “reduction” and the “Food effect on Tmax” value [1, 3] was “delay in Tmax”. The “Effect of a high-fat, high-calorie meal on PK” value ([1]; twelve patients, module 1c) was “modest PK changes”, the “DLT rate at the proposed preliminary RP2D” value ([2]; 160 mg QD (3/4), 2/25) was 8% and the “Any DLT event” value [2, 4] was 1 (33.3) n (%). For the same compound, the “DLT: Anemia” value [2, 4] was 1 (33.3) n (%), the “DLT: Febrile neutropenia” value [2, 4] was 0 n (%) and the “DLT: Neutrophil count decreased” value [2, 4] was 0 n (%). For the same compound, the “DLT: Platelet count decreased” value [2, 4] was 0 n (%), the “Any DLT event” value [2, 5] was 1 (5.9) n (%) and the “DLT: Anemia” value [2, 5] was 1 (5.9) n (%). The “DLT: Febrile neutropenia” value [2, 5] was 0 n (%), the “DLT: Neutrophil count decreased” value [2, 5] was 0 n (%) and the “DLT: Platelet count decreased” value [2, 5] was 0 n (%). For the same compound, the “Any DLT event” value [2, 6] was 2 (8.0) n (%), the “DLT: Anemia” value [2, 6] was 2 (8.0) n (%) and the “DLT: Febrile neutropenia” value [2, 6] was 0 n (%). The “DLT: Neutrophil count decreased” value [2, 6] was 0 n (%), the “DLT: Platelet count decreased” value [2, 6] was 0 n (%) and the “Any DLT event” value [2, 7] was 2 (8.0) n (%). The “DLT: Anemia” value [2, 7] was 1 (4.0) n (%), the “DLT: Febrile neutropenia” value [2, 7] was 0 n (%) and the “DLT: Neutrophil count decreased” value [2, 7] was 1 (4.0) n (%). The “DLT: Platelet count decreased” value [2, 7] was 0 n (%), the “Any DLT event” value [2, 8] was 1 (20.0) n (%) and the “DLT: Anemia” value [2, 8] was 1 (20.0) n (%). For the same compound, the “DLT: Febrile neutropenia” value [2, 8] was 1 (20.0) n (%), the “DLT: Neutrophil count decreased” value [2, 8] was 0 n (%) and the “DLT: Platelet count decreased” value [2, 8] was 1 (20.0) n (%). The “Any DLT event” value [2, 9] was 0 n (%), the “DLT: Anemia” value [2, 9] was 0 n (%) and the “DLT: Febrile neutropenia” value [2, 9] was 0 n (%). The “DLT: Neutrophil count decreased” value [2, 9] was 0 n (%), the “DLT: Platelet count decreased” value [2, 9] was 0 n (%) and the “Any DLT event” value [2, 10] was 2 (50.0) n (%). The “DLT: Anemia” value [2, 10] was 1 (25.0) n (%), the “DLT: Febrile neutropenia” value [2, 10] was 0 n (%) and the “DLT: Neutrophil count decreased” value [2, 10] was 0 n (%). The “DLT: Platelet count decreased” value [2, 10] was 1 (25.0) n (%), the “Any DLT event” value [2, 11] was 0 n (%) and the “DLT: Anemia” value [2, 11] was 0 n (%). The “DLT: Febrile neutropenia” value [2, 11] was 0 n (%), the “DLT: Neutrophil count decreased” value [2, 11] was 0 n (%) and the “DLT: Platelet count decreased” value [2, 11] was 0 n (%). For the same compound, the “Any DLT event” value [2, 12] was 0 n (%), the “DLT: Anemia” value [2, 12] was 0 n (%) and the “DLT: Febrile neutropenia” value [2, 12] was 0 n (%). The “DLT: Neutrophil count decreased” value [2, 12] was 0 n (%), the “DLT: Platelet count decreased” value [2, 12] was 0 n (%) and the “Any DLT event” value [2, 13] was 0 n (%). For the same compound, the “DLT: Anemia” value [2, 13] was 0 n (%), the “DLT: Febrile neutropenia” value [2, 13] was 0 n (%) and the “DLT: Neutrophil count decreased” value [2, 13] was 0 n (%). The “DLT: Platelet count decreased” value [2, 13] was 0 n (%), the “Preliminary recommended phase 2 dose (RP2D)” value ([2]; QD, 3 d on/4 d off (weekly on days 1–3)) was 160 mg and the “Any DLT event” value ([2]; Total DLT evaluable (n = 92)) was 9 (9.8) n (%). For the same compound, the “DLT: Anemia” value ([2]; Total DLT evaluable (n = 92)) was 7 (7.6) n (%), the “DLT: Febrile neutropenia” value ([2]; Total DLT evaluable (n = 92)) was 1 (1.1) n (%) and the “DLT: Neutrophil count decreased” value ([2]; Total DLT evaluable (n = 92)) was 1 (1.1) n (%). For the same compound, the “DLT: Platelet count decreased” value ([2]; Total DLT evaluable (n = 92)) was 2 (2.2) n (%).
